One test has as its target human dOR (Homo sapiens (Human), UniProt P41143). The test is described as follows: cell-based. The note with it: dOR cAMP Agonist Assay EC50, CHO Tag-lite human dOR stable cell line; forskolin.
A further test addresses human mOR (Homo sapiens (Human), UniProt P35372). The test can be described thus: cell-based.
Where [1] appears, read: CHO Tag-lite human mOR stable cell line, forskolin 4 μM and DAMGO at EC90, read-out: mOR cAMP Antagonist Assay IC50.

Like-named read-outs stand apart in the source and are kept apart here.

Sequence of human mOR (P35372 whole entry): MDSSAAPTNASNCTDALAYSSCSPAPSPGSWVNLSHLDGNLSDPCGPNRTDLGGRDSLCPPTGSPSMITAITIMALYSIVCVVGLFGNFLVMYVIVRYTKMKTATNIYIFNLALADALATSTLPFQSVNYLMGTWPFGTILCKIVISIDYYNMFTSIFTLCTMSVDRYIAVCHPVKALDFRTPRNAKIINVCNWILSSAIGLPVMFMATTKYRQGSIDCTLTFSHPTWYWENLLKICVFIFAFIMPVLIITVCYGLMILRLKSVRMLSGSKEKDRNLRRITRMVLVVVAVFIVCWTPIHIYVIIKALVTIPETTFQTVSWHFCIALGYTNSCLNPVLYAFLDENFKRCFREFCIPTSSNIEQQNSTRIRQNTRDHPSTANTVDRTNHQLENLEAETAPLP
Sequence of human dOR (P41143 whole entry): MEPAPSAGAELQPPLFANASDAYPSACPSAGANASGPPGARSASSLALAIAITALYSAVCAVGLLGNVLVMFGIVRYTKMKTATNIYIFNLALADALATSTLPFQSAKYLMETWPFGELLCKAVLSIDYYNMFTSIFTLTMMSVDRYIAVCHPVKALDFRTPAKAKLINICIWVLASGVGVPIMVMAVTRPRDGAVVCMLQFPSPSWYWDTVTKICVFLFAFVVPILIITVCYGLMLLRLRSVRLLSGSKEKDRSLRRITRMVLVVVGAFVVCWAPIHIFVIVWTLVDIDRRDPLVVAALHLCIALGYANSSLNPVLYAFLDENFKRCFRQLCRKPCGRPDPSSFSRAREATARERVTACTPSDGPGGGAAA

As for `CNC(=O)c1cc(F)c(C[C@@H](CNC(=O)C[C@H](c2ccccc2)C(C)(C)C)N(C)C)cc1F` [Compound 104, 4-((S)-3-((S)-4,4-dimethyl-3-phenylpentanamido)-2-(dimethylamino)propyl)-2,5-difluoro-N-methylbenzamide], the concentration giving a half-maximal response (EC50) (commonly the concentration needed to bring the measured effect to its halfway point) at human dOR was 300 to 3000 nM. In addition, the IC50 (as a rule, the concentration that inhibits the measured activity by half) on human mOR is under 300 nM.
For `CNC(=O)c1cc(C)c(C[C@@H](CNC(=O)C[C@@H](c2ccccc2)C(C)(C)C)N(C)C)cc1F` [Compound 146, 4-((S)-3-((R)-4,4-dimethyl-3-phenylpentanamido)-2-(dimethylamino)propyl)-2-fluoro-N,5-dimethylbenzamide] the same measures were over 3000 nM and under 300 nM.
For `CNC(=O)c1ccc(C[C@@H](CNC(=O)C[C@@H](CC(C)C)c2ccccc2)N(C)C)cc1Cl` [Compound 147, 2-chloro-4-((S)-2-(dimethylamino)-3-((R)-5-methyl-3-phenylhexanamido)propyl)-N-methylbenzamide] the same measures were under 300 nM and under 300 nM.
`CNC(=O)c1ccc(C[C@@H](CNC(=O)C[C@H](c2ccccc2)C(C)C)N(C)C)cc1Cl` [Compound 148, 2-chloro-4-((S)-2-(dimethylamino)-3-((S)-4-methyl-3-phenylpentanamido)propyl)-N-methylbenzamide]: the EC50 on human dOR was 300 to 3000 nM. Besides, the IC50 at human mOR was 300 to 3000 nM.
Regarding `CNC(=O)c1ccc(C[C@@H](CNC(=O)C[C@H](c2ccccc2)C(C)(C)C)N(C)C)cc1Cl` [Compound 150, 2-chloro-4-((S)-3-((S)-4,4-dimethyl-3-phenylpentanamido)-2-(dimethylamino)propyl)-N-methylbenzamide], the 50% effective concentration (EC50) at human dOR was over 3000 nM. The IC50 on human mOR is under 300 nM.
`CNC(=O)c1ccc(C[C@@H](CNC(=O)C[C@@H](C)c2ccc(Cl)cc2)N(C)C)cc1F` [Compound 155, 4-((S)-3-((R)-3-(4-chlorophenyl)butanamido)-2-(dimethylamino)propyl)-2-fluoro-N-methylbenzamide]: on human dOR, the 50% effective concentration (EC50) is under 300 nM. Moreover, the IC50 at human mOR (setting [1]) was under 300 nM.
Regarding `CNC(=O)c1ccc(C[C@@H](CNC(=O)C[C@H](C)c2ccc(Cl)cc2)N(C)C)cc1F` [Compound 156, 4-((S)-3-((S)-3-(4-chlorophenyl)butanamido)-2-(dimethylamino)propyl)-2-fluoro-N-methylbenzamide], the EC50 at human dOR lay in the range of 300 to 3000 nM. Also, on human mOR (setting [1]), the IC50 is under 300 nM.
With `CNC(=O)c1ccc(C[C@@H](CNC(=O)C[C@H](c2ccccc2)C(C)(C)C)N2CCCC2)cc1F` [Compound 157, 4-((S)-3-((S)-4,4-dimethyl-3-phenylpentanamido)-2-(pyrrolidin-1-yl)propyl)-2-fluoro-N-methylbenzamide], the EC50 at human dOR was over 3000 nM. For the same compound, the IC50 at human mOR is under 300 nM.
For `CNC(=O)c1ccc(C[C@@H](CNC(=O)C[C@H](c2ccccc2)C(C)(C)C)N(C)C)cc1F` [Compound 158, 4-((S)-3-((S)-4,4-dimethyl-3-phenylpentanamido)-2-(dimethylamino)propyl)-2-fluoro-N-methylbenzamide] the same measures were over 3000 nM and under 300 nM.
Consider `CNC(=O)c1ccc(C[C@@H](CNC(=O)C[C@@H](c2ccccc2)C(C)(C)C)N(C)C)cc1F` [Compound 159, 4-((S)-3-((R)-4,4-dimethyl-3-phenylpentanamido)-2-(dimethylamino)propyl)-2-fluoro-N-methylbenzamide], for which, at human dOR, the concentration for a half-maximal effect (EC50) was in the range of 300 to 3000 nM. In addition, the half-inhibitory concentration (IC50) at human mOR was under 300 nM.
On the same counts, the results for `CNC(=O)c1ccc(C[C@@H](CNC(=O)C[C@@H](CC(C)C)c2ccccc2)N(C)C)cc1F` [Compound 160, 4-((S)-2-(dimethylamino)-3-((R)-5-methyl-3-phenylhexanamido)propyl)-2-fluoro-N-methylbenzamide] are under 300 nM and under 300 nM.
For `CNC(=O)c1ccc(C[C@@H](CNC(=O)C[C@@H](c2ccccc2)C(C)C)N(C)C)cc1F` [Compound 162, 4-((S)-2-(dimethylamino)-3-((R)-4-methyl-3-phenylpentanamido)propyl)-2-fluoro-N-methylbenzamide] the same measures were 300 to 3000 nM and under 300 nM.
`CNC(=O)c1ccc(C[C@@H](CNC(=O)C[C@H](C)c2ccccn2)N(C)C)cc1F` [Compound 163, 4-((S)-2-(dimethylamino)-3-((S)-3-(pyridin-2-yl)butanamido)propyl)-2-fluoro-N-methylbenzamide]: at human dOR, the EC50 is over 3000 nM. On human mOR, the concentration for half-maximal inhibition (IC50) was under 300 nM.
Turning to `CNC(=O)c1ccc2c(c1)CN(C)[C@H](CNC(=O)C[C@H](c1ccccc1)C(C)(C)C)C2` [Compound 168, (S)-3-(((S)-4,4-dimethyl-3-phenylpentanamido)methyl)-N,2-dimethyl-1,2,3,4-tetrahydroisoquinoline-7-carboxamide], at human dOR, the concentration giving a half-maximal response (EC50) was over 3000 nM. Moreover, the concentration for half-maximal inhibition (IC50) on human mOR fell in the range of 300 to 3000 nM.
On the same counts, the results for `CC(C)C[C@@H](CC(=O)NC[C@H](Cc1ccc2[nH]c(=O)oc2c1)N(C)C)c1ccccc1` [Compound 172, (3S)-N-[(2S)-2-(dimethylamino)-3-(2-oxo-2,3-dihydro-1,3-benzoxazol-6-yl)propyl]-5-methyl-3-phenylhexanamide] are under 300 nM and under 300 nM.
For `CC(C)[C@@H](CC(=O)NC[C@H](Cc1ccc2[nH]c(=O)oc2c1)N(C)C)c1ccccc1` [Compound 173, (R)-N-((S)-2-(dimethylamino)-3-(2-oxo-2,3-dihydrobenzo[d]oxazol-6-yl)propyl)-4-methyl-3-phenylpentanamide] the same measures were under 300 nM and under 300 nM.
On the same counts, the results for `CCCC[C@@H](CC(=O)NC[C@H](Cc1ccc2[nH]c(=O)oc2c1)N(C)C)c1ccccc1` [Compound 174] are under 300 nM and under 300 nM.
Take `CN(C)[C@H](CNC(=O)C[C@H](c1ccccc1)C1CC1)Cc1ccc2[nH]c(=O)oc2c1` [Compound 177, (S)-3-cyclopropyl-N-((S)-2-(dimethylamino)-3-(2-oxo-2,3-dihydrobenzo[d]oxazol-6-yl)propyl)-3-phenylpropanamide]: the EC50 on human dOR lay within 300 to 3000 nM. Moreover, the half-maximal inhibitory concentration (IC50) on human mOR is under 300 nM.
Consider `CN(C)[C@H](CNC(=O)C[C@@H](c1ccccc1)C1CC1)Cc1ccc2[nH]c(=O)oc2c1` [Compound 178, (R)-3-cyclopropyl-N-((S)-2-(dimethylamino)-3-(2-oxo-2,3-dihydrobenzo[d]oxazol-6-yl)propyl)-3-phenylpropanamide], for which the half-maximal effective concentration (EC50) on human dOR lay in the range of 300 to 3000 nM. The 50% inhibitory concentration (IC50) on human mOR is under 300 nM.
In the case of `CC(C)[C@@H](CC(=O)NC[C@H](Cc1ccc2c(c1)CC(=O)N2)N(C)C)c1ccccc1` [Compound 182, (R)-N-((S)-2-(dimethylamino)-3-(2-oxoindolin-5-yl)propyl)-4-methyl-3-phenylpentanamide], the EC50 on human dOR is over 3000 nM. Besides, the IC50 on human mOR (setting [1]) is over 3000 nM.
In the case of `CC(C)C[C@@H](CC(=O)NC[C@H](Cc1ccc2c(c1)CC(=O)N2)N(C)C)c1ccccc1` [Compound 183, (S)-N-((S)-2-(dimethylamino)-3-(2-oxoindolin-5-yl)propyl)-5-methyl-3-phenylhexanamide], the half-maximal effective concentration (EC50) at human dOR was over 3000 nM. On human mOR, the half-inhibitory concentration (IC50) is under 300 nM.
Take `CN(C)[C@H](CNC(=O)C[C@@H](c1ccccc1)C1CC1)Cc1ccc2c(c1)CC(=O)N2` [Compound 186, (R)-3-cyclopropyl-N-((S)-2-(dimethylamino)-3-(2-oxoindolin-5-yl)propyl)-3-phenylpropanamide]: the EC50 on human dOR lay within 300 to 3000 nM. Further, the half-maximal inhibitory concentration (IC50) on human mOR is under 300 nM.
On the same counts, the results for `C[C@@H](CC(=O)NC[C@H](Cc1ccc2c(c1)OCC(=O)N2)N(C)C)c1ccccc1` [Compound 187, (S)-N-((S)-2-(dimethylamino)-3-(3-oxo-3,4-dihydro-2H-benzo[b][1,4]oxazin-7-yl)propyl)-3-phenylbutanamide] are under 300 nM and under 300 nM.
Regarding `CC(C)C[C@@H](CC(=O)NC[C@H](Cc1ccc2[nH]ncc2c1)N(C)C)c1ccccc1` [Compound 214, (S)-N-((S)-2-(dimethylamino)-3-(1H-indazol-5-yl)propyl)-5-methyl-3-phenylhexanamide], at human dOR, the EC50 was under 300 nM. Besides, the IC50 at human mOR (setting [1]) was under 300 nM.
As for `C[C@H](CC(=O)NC[C@H](Cc1ccc2[nH]ncc2c1)N(C)C)c1cccc(F)c1` [Compound 215, (R)-N-((S)-2-(dimethylamino)-3-(1H-indazol-5-yl)propyl)-3-(3-fluorophenyl)butanamide], the half-maximal effective concentration (EC50) at human dOR was in the range of 300 to 3000 nM. Moreover, on human mOR (setting [1]), the IC50 is under 300 nM.
For `C[C@@H](CC(=O)NC[C@H](Cc1ccc2[nH]ncc2c1)N(C)C)c1ccccn1` [Compound 216, (S)-N-((S)-2-(dimethylamino)-3-(1H-indazol-5-yl)propyl)-3-(pyridin-2-yl)butanamide] the same measures were 300 to 3000 nM and under 300 nM.
As for `Cc1ccc([C@@H](C)CC(=O)NC[C@H](Cc2ccc3[nH]ncc3c2)N(C)C)cc1` [Compound 217, (S)-N-((S)-2-(dimethylamino)-3-(1H-indazol-5-yl)propyl)-3-(p-tolyl)butanamide], the concentration giving a half-maximal response (EC50) at human dOR fell in the range of 300 to 3000 nM. Also, the half-maximal inhibitory concentration (IC50) on human mOR (setting [1]) was under 300 nM.
For the compound `C[C@@H](CC(=O)NC[C@H](Cc1ccc2[nH]ncc2c1)N(C)C)c1ccc(F)cc1` [Compound 218, (S)-N-((S)-2-(dimethylamino)-3-(1H-indazol-5-yl)propyl)-3-(4-fluorophenyl)butanamide], on human dOR, the EC50 was over 3000 nM. Moreover, at human mOR, the IC50 was under 300 nM.
Turning to `CC(C)[C@@H](CC(=O)NC[C@H](Cc1ccc2[nH]ncc2c1)N(C)C)c1ccccc1` [Compound 219, (R)-N-((S)-2-(dimethylamino)-3-(1H-indazol-5-yl)propyl)-4-methyl-3-phenylpentanamide], the EC50 at human dOR lay within 300 to 3000 nM. Further, the IC50 at human mOR (setting [1]) was under 300 nM.
Take `C[C@@H](CC(=O)NC[C@H](Cc1ccc2[nH]ncc2c1)N(C)C)c1ccc(Cl)cc1` [Compound 220, (S)-3-(4-chlorophenyl)-N-((S)-2-(dimethylamino)-3-(1H-indazol-5-yl)propyl)butanamide]: the EC50 at human dOR was over 3000 nM. In addition, at human mOR, the 50% inhibitory concentration (IC50) was under 300 nM.

For the origin of these results see US11634396B2 (priority 2021, dated 2023).
